Assay results taken from patent publication EP0988300B1, “BENZO(5,6)CYCLOHEPTA(1,2-B)PYRIDINE DERIVATIVES FOR THE INHIBITION OF FARNESYL PROTEIN TRANSFERASE” (SCHERING CORPORATION, priority 1997, dated 1998).

What was measured:
[1] = system: Human tumor cells; test: Soft Agar Assay (anchorage-independent growth, colony count after MTT staining); format: cell-based
Procedure: Anchorage-independent growth is a characteristic of tumorigenic cell lines. Human tumor cells can be suspended in growth medium containing 0.3% agarose and an indicated concentration of a farnesyl transferase inhibitor. The solution can be overlayed onto growth medium solidified with 0.6% agarose containing the same concentration of farnesyl transferase inhibitor as the top layer. After the top layer is solidified, plates can be incubated for 10-16 days at 37°C under 5% CO2 to allow colony outgrowth. After incubation, the colonies can be stained by overlaying the agar with a solution of MTT (3-[4,5-dimethyl-thiazol-2-yl]-2,5-diphenyltetrazolium bromide, Thiazolyl blue) (1 mg/mL in PBS). Colonies can be counted and the IC50's can be determined.

[2] = system: COS Cell; test: COS Cell IC50 (Cell-Based Assay), procedures of WO 95/10516
Procedure: FPT IC50 (inhibition of farnesyl protein transferase, in vitro enzyme assay) was determined following the assay procedures described in WO 95/10516, published April 20, 1995. GGPT IC50 (inhibition of geranylgeranyl protein transferase, in vitro enzyme assay), COS Cell IC50 (Cell-Based Assay), Cell Mat Assay, and anti-tumor activity (in vivo anti-tumor studies) could be determined by the assay procedures described in WO 95/10516. The disclosure of WO 95/10516 is incorporated herein by reference thereto.

[3] = target: T1, human FPT (Homo sapiens, UniProt P49354+P49356); test: FPT pM IC50 Assay (scintillation proximity assay, biotin-CVLS and (1-3H)-FPP substrates); format: biochemical; settings: 30 pM human FPT, 176 nM FPP, 100 nM biotin-CVLS, 37° C for 1 hour
T1 construct: made in house; host or cells: Baculovirus/Sf-9 insect cells
Procedure: The enzymatic reaction is performed in 50 mM Tris, 5 µM ZnCl2, 5 mM MgCl2, 0.01 % Triton X-100, 5 mM dithiolthreitol (DTT), pH 7.7 (Buffer R) at 37° C for 1 hour. The purified human FPT (> 95 % pure) was derived from a Baculovirus/Sf-9 expression system. The peptide substrate used was biotin-CVLS (SynPep Corp., Dublin, CA) and (1-^3H)-FPP (21.5 Ci/mmol) was obtained from New England Nuclear Life Science Products (Boston, MA). Compounds were initially dissolved to a final concentration of 4 mg/ml in 100 % DMSO and then to 0.25 µg/ml in 100 % DMSO. Subsequent dilutions of the compound were performed in Buffer R.
The enzymatic reaction is performed in a final volume of 100 µl. Reactions are carried out in a 96 well plate format. […] The reaction is stopped using 150 µl of the Stop Solution consisting of 1.3 mg/ml scintillation beads (strepavidin-coated scintillation proximity beads from. Amersham (Arlington Heights, IL), 250 mM EDTA, pH 8.0 and 0.5 % BSA. The radioactivity is measured after 20 minutes at room temperature.
Compounds are evaluated for their ability to inhibit the reaction by measuring the concentration-dependent percent inhibition of the reaction. […] The enzymatic activity was recorded by measuring the CPM/well using a Wallac 1204 Betaplate BS liquid scintillation counter. […]

| Structure (SMILES) | IC50 [1] [µM] | IC50 [2] [µM] | IC50 [3] [pM] |
| --- | --- | --- | --- |
| NC(=O)N1CCC(CC(=O)N2CCC([C@@H]3c4c(Br)cc(Cl)cc4CCc4cc(Br)c[n+]([O-])c43)CC2)CC1 [Example 2] | 0.025 to 0.183 | 0.009 to 0.085 |  |
| O=C(Cc1cc[n+]([O-])cc1)N1CCC([C@@H]2c3c(Br)cc(Cl)cc3CCc3cc(Br)c[n+]([O-])c32)CC1 [Example 3] | 0.025 to 0.183 | 0.009 to 0.085 |  |
| O=C(Cc1cc[n+]([O-])cc1)N1CCN(C2c3ccc(Cl)cc3CCc3cc(Br)c[n+]([O-])c32)CC1 (centres unmarked) [Example 7] | 0.025 to 0.183 | 0.009 to 0.085 | 440 |
| NC(=O)N1CCC(CC(=O)N2CCN([C@@H]3c4ccc(Cl)cc4CCc4cc(Br)c[n+]([O-])c43)CC2)CC1 [Example 10] |  |  | 410 |
